Values quoted from earlier work in patent US7294332B2, “Combination therapy (temozolomide and α-IFN) for advanced cancer” (Schering Corporation, priority 1995, dated 2007).

How the values were obtained:
[1] = test system: advanced melanoma; settings: patients having advanced melanoma; Newlands ES, et al. Br J Cancer 65 (2), 1992
[2] = test system: advanced melanoma; settings: patients with advanced melanoma; Journal of Clinical Oncology, Vol 13, No. 4 (April), 1995

Cn1nnc2c(C(N)=O)ncn2c1=O [Temozolomide, 3,4-dihydro-3-methyl-4-oxoimidazo-[5,1-d]1,2,3,4-tetrazin-8-carboximide]
clinical responses achieved, % of patients [1]: 17%
clinical response achieved, % of patients [2]: 21%
